Experimental data: patent US7632666B2 (priority 2005, dated 2009)

Legend:
[1] = target: haloalkane dehalogenase LinB L177K (Sphingobium indicum, UniProt D4Z2G1, L177K); format: biochemical
[2] = target: haloalkane dehalogenase LinB L177V (Sphingobium indicum, UniProt D4Z2G1, L177V); format: biochemical
[3] = target: haloalkane dehalogenase LinB L177D (Sphingobium indicum, UniProt D4Z2G1, L177D); format: biochemical
[4] = target: haloalkane dehalogenase LinB L177R (Sphingobium indicum, UniProt D4Z2G1, L177R); format: biochemical
Sequence of haloalkane dehalogenase LinB L177R (D4Z2G1 whole entry L177R, looked up): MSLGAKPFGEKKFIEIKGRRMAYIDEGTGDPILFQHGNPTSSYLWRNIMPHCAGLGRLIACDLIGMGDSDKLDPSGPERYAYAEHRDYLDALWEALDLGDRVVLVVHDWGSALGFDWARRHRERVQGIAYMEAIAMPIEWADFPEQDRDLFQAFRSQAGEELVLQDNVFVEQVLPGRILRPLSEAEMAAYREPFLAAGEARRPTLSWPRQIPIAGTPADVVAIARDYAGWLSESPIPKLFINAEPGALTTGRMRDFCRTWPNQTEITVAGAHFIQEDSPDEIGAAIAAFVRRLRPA

[5] = target: haloalkane dehalogenase LinB L177G (Sphingobium indicum, UniProt D4Z2G1, L177G); format: biochemical
Sequence of haloalkane dehalogenase LinB L177G (D4Z2G1 whole entry L177G, looked up): as the sequence (D4Z2G1 whole entry L177R, looked up) above, with R177G counted along it

[6] = target: haloalkane dehalogenase LinB L177Y (Sphingobium indicum, UniProt D4Z2G1, L177Y); format: biochemical
Sequence of haloalkane dehalogenase LinB L177Y (D4Z2G1 whole entry L177Y, looked up): as the sequence (D4Z2G1 whole entry L177R, looked up) above, with R177Y counted along it

[7] = target: haloalkane dehalogenase LinB wild type (Sphingobium indicum, UniProt D4Z2G1); format: biochemical, Sphingomonas paucimobilis UT26
Sequence of haloalkane dehalogenase LinB wild type (D4Z2G1 whole entry): as the sequence (D4Z2G1 whole entry L177R, looked up) above, with R177L counted along it

[8] = target: haloalkane dehalogenase LinB L177H (Sphingobium indicum, UniProt D4Z2G1, L177H); format: biochemical
Sequence of haloalkane dehalogenase LinB L177H (D4Z2G1 whole entry L177H, looked up): as the sequence (D4Z2G1 whole entry L177R, looked up) above, with R177H counted along it

[9] = target: haloalkane dehalogenase LinB L177F (Sphingobium indicum, UniProt D4Z2G1, L177F); format: biochemical
Sequence of haloalkane dehalogenase LinB L177F (D4Z2G1 whole entry L177F, looked up): as the sequence (D4Z2G1 whole entry L177R, looked up) above, with R177F counted along it

[10] = target: haloalkane dehalogenase LinB L177Q (Sphingobium indicum, UniProt D4Z2G1, L177Q); format: biochemical
Sequence of haloalkane dehalogenase LinB L177Q (D4Z2G1 whole entry L177Q, looked up): as the sequence (D4Z2G1 whole entry L177R, looked up) above, with R177Q counted along it

[11] = target: haloalkane dehalogenase LinB L177S (Sphingobium indicum, UniProt D4Z2G1, L177S); format: biochemical
Sequence of haloalkane dehalogenase LinB L177S (D4Z2G1 whole entry L177S, looked up): as the sequence (D4Z2G1 whole entry L177R, looked up) above, with R177S counted along it

[12] = target: haloalkane dehalogenase LinB L177A (Sphingobium indicum, UniProt D4Z2G1, L177A); format: biochemical
Sequence of haloalkane dehalogenase LinB L177A (D4Z2G1 whole entry L177A, looked up): as the sequence (D4Z2G1 whole entry L177R, looked up) above, with R177A counted along it

[13] = target: haloalkane dehalogenase LinB L177C (Sphingobium indicum, UniProt D4Z2G1, L177C); format: biochemical
Sequence of haloalkane dehalogenase LinB L177C (D4Z2G1 whole entry L177C, looked up): as the sequence (D4Z2G1 whole entry L177R, looked up) above, with R177C counted along it

[14] = target: haloalkane dehalogenase LinB L177W (Sphingobium indicum, UniProt D4Z2G1, L177W); format: biochemical
Sequence of haloalkane dehalogenase LinB L177W (D4Z2G1 whole entry L177W, looked up): as the sequence (D4Z2G1 whole entry L177R, looked up) above, with R177W counted along it

[15] = target: haloalkane dehalogenase LinB L177T (Sphingobium indicum, UniProt D4Z2G1, L177T); format: biochemical
Sequence of haloalkane dehalogenase LinB L177T (D4Z2G1 whole entry L177T, looked up): as the sequence (D4Z2G1 whole entry L177R, looked up) above, with R177T counted along it

[16] = target: haloalkane dehalogenase LinB L177M (Sphingobium indicum, UniProt D4Z2G1, L177M); format: biochemical
Sequence of haloalkane dehalogenase LinB L177M (D4Z2G1 whole entry L177M, looked up): as the sequence (D4Z2G1 whole entry L177R, looked up) above, with R177M counted along it

[17] = target: haloalkane dehalogenase DhlA (Xanthobacter autotrophicus, UniProt P22643); format: biochemical, Xanthobacter autotrophicus GJ10
Sequence of haloalkane dehalogenase DhlA (P22643 whole entry): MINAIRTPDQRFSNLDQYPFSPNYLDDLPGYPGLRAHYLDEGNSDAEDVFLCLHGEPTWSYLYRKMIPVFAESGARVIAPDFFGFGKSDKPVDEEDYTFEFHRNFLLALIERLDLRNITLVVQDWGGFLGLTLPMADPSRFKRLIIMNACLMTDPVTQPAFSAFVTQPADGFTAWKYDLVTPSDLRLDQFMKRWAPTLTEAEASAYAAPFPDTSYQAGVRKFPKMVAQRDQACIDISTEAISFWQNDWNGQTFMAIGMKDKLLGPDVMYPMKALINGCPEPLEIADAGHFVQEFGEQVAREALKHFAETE

[18] = target: T1, haloalkane dehalogenase DbjA (Bradyrhizobium diazoefficiens, UniProt P59337); format: biochemical, Bradyrhizobium japonicum USDA110
T1 sequence (P59337 whole entry): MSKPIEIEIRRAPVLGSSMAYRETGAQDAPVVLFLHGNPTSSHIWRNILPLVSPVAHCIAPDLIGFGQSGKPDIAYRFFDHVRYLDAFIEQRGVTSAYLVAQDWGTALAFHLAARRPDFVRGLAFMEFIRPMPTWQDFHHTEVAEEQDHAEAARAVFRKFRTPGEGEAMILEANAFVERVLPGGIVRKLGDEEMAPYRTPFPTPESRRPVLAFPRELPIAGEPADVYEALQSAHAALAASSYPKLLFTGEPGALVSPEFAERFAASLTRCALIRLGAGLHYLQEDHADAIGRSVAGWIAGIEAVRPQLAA

[19] = target: haloalkane dehalogenase LinB (Sphingobium indicum, UniProt D4Z2G1); format: biochemical, Sphingomonas paucimobilis UT26
Sequence of haloalkane dehalogenase LinB (D4Z2G1 whole entry): as the sequence (D4Z2G1 whole entry L177R, looked up) above, with R177L counted along it

[20] = target: haloalkane dehalogenase DhaA (Rhodococcus rhodochrous, UniProt P0A3G2); format: biochemical, Rhodococcus rhodochrous NCIMB 13064
Sequence of haloalkane dehalogenase DhaA (P0A3G2 whole entry): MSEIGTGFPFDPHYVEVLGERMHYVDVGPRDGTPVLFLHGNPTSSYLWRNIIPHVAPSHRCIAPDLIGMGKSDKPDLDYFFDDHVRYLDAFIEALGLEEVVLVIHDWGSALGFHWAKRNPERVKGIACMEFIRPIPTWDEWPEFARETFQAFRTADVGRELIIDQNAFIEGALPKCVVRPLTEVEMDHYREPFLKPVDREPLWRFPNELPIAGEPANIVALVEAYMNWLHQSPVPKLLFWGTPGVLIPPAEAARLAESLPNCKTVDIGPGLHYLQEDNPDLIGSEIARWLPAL

[21] = target: T1, haloalkane dehalogenase DbjA; format: biochemical, Bradyrhizobium japonicum USDA110; conditions: for Relative enzyme activity (%) 5% of solvent / Relative enzyme activity (%) 10% of solvent / Relative enzyme activity (%) 20% of solvent: pH 8.6

Sequence of haloalkane dehalogenase LinB L177D (D4Z2G1 whole entry L177D, looked up): as the sequence (D4Z2G1 whole entry L177R, looked up) above, with R177D counted along it
Sequence of haloalkane dehalogenase LinB L177V (D4Z2G1 whole entry L177V, looked up): as the sequence (D4Z2G1 whole entry L177R, looked up) above, with R177V counted along it
Sequence of haloalkane dehalogenase LinB L177K (D4Z2G1 whole entry L177K, looked up): as the sequence (D4Z2G1 whole entry L177R, looked up) above, with R177K counted along it

Compound: ICCCI [1,3-diidopropane]
- Relative activities (% of wt) L177K [1]: 132 % of wt
- Relative activities (% of wt) L177V [2]: 206 % of wt
- Relative activities (% of wt) L177D [3]: 209 % of wt
- Relative activities (% of wt) L177R [4]: 127 % of wt
- Relative activities (% of wt) L177G [5]: 164 % of wt
- Relative activities (% of wt) L177Y [6]: 102 % of wt
- Relative activities (% of wt) wt1 [7]: 100 % of wt
- Relative activities (% of wt) wt2 [7]: 100 % of wt
- Relative activities (% of wt) L177H [8]: 140 % of wt
- Relative activities (% of wt) L177F [9]: 130 % of wt
- Relative activities (% of wt) L177Q [10]: 159 % of wt
- Relative activities (% of wt) L177S [11]: 123 % of wt
- Relative activities (% of wt) L177A [12]: 360 % of wt
- Relative activities (% of wt) L177C [13]: 192 % of wt
- Relative activities (% of wt) L177W [14]: 117 % of wt
- Relative activities (% of wt) L177T [15]: 108 % of wt
- Relative activities (% of wt) L177M [16]: 202 % of wt

Compound: CC(Br)CCBr (racemic) [1,3-dibromobutane]
- E-values DhlA [17]: 2
- E-values DbjA [18]: 1.4
- E-values LinB [19]: 4.6
- E-values DhaA [20]: 1.3

Compound: COC(=O)C(Br)CCBr (racemic) [methyl 2,4-dibromobutyrate]
- E-values DhlA [17]: 1.6
- E-values DbjA [18]: 1.3
- E-values LinB [19]: 1.9
- E-values DhaA [20]: 1

Compound: CCC(Br)CBr (racemic) [1,2-dibromobutane]
- E-values DhlA [17]: 1.1
- E-values DbjA [18]: 2.7
- E-values LinB [19]: 10
- E-values DhaA [20]: 2

Compound: CC(CCl)CBr (racemic) [1-bromo-3-chloro-2-methylpropane]
- E-values DhlA [17]: 1.8
- E-values DbjA [18]: 1.4
- E-values LinB [19]: 1.8
- E-values DhaA [20]: 1.7

Compound: CCCCBr [1-bromobutane]
- Relative activities (% of wt) L177K [1]: 201 % of wt
- Relative activities (% of wt) L177V [2]: 132 % of wt
- Relative activities (% of wt) L177D [3]: 347 % of wt
- Relative activities (% of wt) L177R [4]: 165 % of wt
- Relative activities (% of wt) L177G [5]: 380 % of wt
- Relative activities (% of wt) L177Y [6]: 112 % of wt
- Relative activities (% of wt) wt1 [7]: 100 % of wt
- Relative activities (% of wt) wt2 [7]: 100 % of wt
- Relative activities (% of wt) L177H [8]: 224 % of wt
- Relative activities (% of wt) L177F [9]: 243 % of wt
- Relative activities (% of wt) L177Q [10]: 458 % of wt
- Relative activities (% of wt) L177S [11]: 381 % of wt
- Relative activities (% of wt) L177A [12]: 356 % of wt
- Relative activities (% of wt) L177C [13]: 243 % of wt
- Relative activities (% of wt) L177W [14]: 60 % of wt
- Relative activities (% of wt) L177T [15]: 553 % of wt
- Relative activities (% of wt) L177M [16]: 227 % of wt

Compound: CC(C)=O [acetone]
- DbjA activity in the presence of the solvent in the reaction medium [21]: increasing activity
- increase of reaction rate compared to that in the glycine buffer [21]: 1.68 times
- Relative enzyme activity (%) 5% of solvent [21]: 113.8 ± 7.3%
- Relative enzyme activity (%) 10% of solvent [21]: 140.3 ± 2.1%
- Relative enzyme activity (%) 20% of solvent [21]: 168.2 ± 3.1%

Compound: CC(Cl)CCl (stereo not shown) [1,2-dichloropropane]
- E-values DhlA [17]: 2

Compound: CN(C)C=O [N,N-dimethylformamide]
- Relative enzyme activity (%) 5% of solvent [21]: 110.5 ± 11.6%
- Relative enzyme activity (%) 10% of solvent [21]: 112.6 ± 3.8%
- Relative enzyme activity (%) 20% of solvent [21]: 101.9 ± 1.0%

Compound: BrCCBr [1,2-dibromoethane]
- Relative activities (% of wt) L177K [1]: 97 % of wt
- Relative activities (% of wt) L177V [2]: 84 % of wt
- Km [3]: 14 mM
- Relative activities (% of wt) L177D [3]: 77 % of wt
- Relative activities (% of wt) L177R [4]: 68 % of wt
- Relative activities (% of wt) L177G [5]: 78 % of wt
- Relative activities (% of wt) L177Y [6]: 16 % of wt
- Relative activities (% of wt) wt1 [7]: 100 % of wt
- Relative activities (% of wt) wt2 [7]: 100 % of wt
- Relative activities (% of wt) L177H [8]: 55 % of wt
- Relative activities (% of wt) L177F [9]: 70 % of wt
- Relative activities (% of wt) L177Q [10]: 123 % of wt
- Relative activities (% of wt) L177S [11]: 84 % of wt
- Relative activities (% of wt) L177A [12]: 155 % of wt
- Relative activities (% of wt) L177C [13]: 52 % of wt
- Relative activities (% of wt) L177W [14]: 7 % of wt
- Relative activities (% of wt) L177T [15]: 107 % of wt
- Relative activities (% of wt) L177M [16]: 126 % of wt

Compound: CCCCI [1-iodobutane]
- Relative activities (% of wt) L177K [1]: 131 % of wt
- Relative activities (% of wt) L177V [2]: 101 % of wt
- Relative activities (% of wt) L177D [3]: 259 % of wt
- Relative activities (% of wt) L177R [4]: 161 % of wt
- Relative activities (% of wt) L177G [5]: 344 % of wt
- Relative activities (% of wt) L177Y [6]: 97 % of wt
- Relative activities (% of wt) wt1 [7]: 100 % of wt
- Relative activities (% of wt) wt2 [7]: 100 % of wt
- Relative activities (% of wt) L177H [8]: 208 % of wt
- Relative activities (% of wt) L177F [9]: 126 % of wt
- Relative activities (% of wt) L177Q [10]: 373 % of wt
- Relative activities (% of wt) L177S [11]: 363 % of wt
- Relative activities (% of wt) L177A [12]: 133 % of wt
- Relative activities (% of wt) L177C [13]: 210 % of wt
- Relative activities (% of wt) L177W [14]: 58 % of wt
- Relative activities (% of wt) L177T [15]: 424 % of wt
- Relative activities (% of wt) L177M [16]: 187 % of wt

Compound: CC#N [acetonitrile]
- Relative enzyme activity (%) 5% of solvent [21]: 117.5 ± 8.9%
- Relative enzyme activity (%) 10% of solvent [21]: 124.1 ± 1.0%
- Relative enzyme activity (%) 20% of solvent [21]: 0.0 ± 0.0%

Compound: CCCCCl [1-chlorobutane]
- Km [3]: 21.9 mM

Compound: CC(Br)CBr (stereo not shown) [1,2-dibromopropane]
- E-values DhlA [17]: 3
- E-values DbjA [18]: 2.6
- E-values LinB [19]: 1.3
- E-values DhaA [20]: 1.3

Compound: CCCCCC(C)Br (racemic) [2-bromoheptane]
- E-values DhlA [17]: 2.4
- E-values DbjA [18]: 28
- E-values LinB [19]: 2.8
- E-values DhaA [20]: 2.9

Compound: CC(C)(C)C(Br)CBr (racemic) [1,2-dibromo-3,3-dimethylbutane]
- E-values LinB [19]: 1.1

Compound: C=C(C)CCl [3-chloro-2-methylpropene]
- Relative activities (% of wt) L177K [1]: 110 % of wt
- Relative activities (% of wt) L177V [2]: 79 % of wt
- Relative activities (% of wt) L177D [3]: 25 % of wt
- Relative activities (% of wt) L177R [4]: 83 % of wt
- Relative activities (% of wt) L177G [5]: 200 % of wt
- Relative activities (% of wt) L177Y [6]: 78 % of wt
- Relative activities (% of wt) wt1 [7]: 100 % of wt
- Relative activities (% of wt) wt2 [7]: 100 % of wt
- Relative activities (% of wt) L177H [8]: 82 % of wt
- Relative activities (% of wt) L177F [9]: 98 % of wt
- Relative activities (% of wt) L177Q [10]: 138 % of wt
- Relative activities (% of wt) L177S [11]: 65 % of wt
- Relative activities (% of wt) L177A [12]: 199 % of wt
- Relative activities (% of wt) L177C [13]: 157 % of wt
- Relative activities (% of wt) L177W [14]: 91 % of wt
- Relative activities (% of wt) L177T [15]: 96 % of wt
- Relative activities (% of wt) L177M [16]: 100 % of wt

Compound: C1COCCO1 [1,4-dioxane]
- DbjA activity in the presence of the solvent in the reaction medium [21]: increasing activity
- Relative enzyme activity (%) 5% of solvent [21]: 121.4 ± 3.9%
- Relative enzyme activity (%) 10% of solvent [21]: 139.9 ± 7.8%
- Relative enzyme activity (%) 20% of solvent [21]: 152.0 ± 9.5%

Compound: CCCCC(C)Br (racemic) [2-bromohexane]
- E-values DbjA [18]: 35
- E-values LinB [19]: 12
- E-values DhaA [20]: 4

Compound: CO [Methanol]
- DbjA activity in the presence of the solvent in the reaction medium [21]: increasing activity
- Relative enzyme activity (%) 5% of solvent [21]: 93.5 ± 0.9%
- Relative enzyme activity (%) 10% of solvent [21]: 128.7 ± 3.5%
- Relative enzyme activity (%) 20% of solvent [21]: 160.7 ± 2.0%

Compound: NC=O [Formamide]
- Relative enzyme activity (%) 5% of solvent [21]: 73.4 ± 7.6%
- Relative enzyme activity (%) 10% of solvent [21]: 76.3 ± 5.0%
- Relative enzyme activity (%) 20% of solvent [21]: 16.3 ± 0.6%

Compound: OCCO [ethyleneglycol]
- Relative enzyme activity (%) 5% of solvent [21]: 87.1 ± 9.8%
- Relative enzyme activity (%) 10% of solvent [21]: 80.5 ± 8.9%
- Relative enzyme activity (%) 20% of solvent [21]: 109.8 ± 4.0%

Compound: C1CCOC1 [tetrahydrofurane]
- Relative enzyme activity (%) 5% of solvent [21]: 111.9 ± 13.4%
- Relative enzyme activity (%) 10% of solvent [21]: 96.9 ± 9.0%
- Relative enzyme activity (%) 20% of solvent [21]: 0.0 ± 0.0%

Compound: CC(Cl)CCCl (racemic) [1,3-dichlorobutane]
- E-values DhlA [17]: 2.8
- E-values DbjA [18]: 1.0
- E-values LinB [19]: 2.6
- E-values DhaA [20]: 1.6
